Test results taken from patent publication US10842801B2, “Optimizing mifepristone absorption” (Corcept Therapeutics, Inc., priority 2011, dated 2020).
Read-outs that look alike come from different tables or passages of the source.

Assays:
[1] = Plasma drug concentration in different patients given the same dose of mifepristone; format: in vivo, human
[2] = Food effect studies: pharmacokinetics of mifepristone under fasting and fed conditions; format: in vivo, human; conditions: for AUC(0-inf) / Cmax / AUC(0-t): human, plasma, oral; for AUC(0-inf): read-out: AUCinf Geo Mean; for Cmax: read-out: Cmax Geo Mean; for AUC(0-t): read-out: AUC0-24 Geo Mean
Protocol: Blood is collected from a patient in a vacutainer containing sodium heparin. The blood is centrifuged and the resulting plasma frozen at an appropriate temperature until assay. In some embodiments, the temperature is about -70° C. In other embodiments, other blood components can be collected and stored. Prior to analysis, the plasma is thawed and a fraction of the plasma is mixed with an internal standard in a solvent such as acetonitrile, to obtain a fixed concentration of the standard. In some embodiments, the internal standard can be mifepristone-d4. […] Base is then added to the sample solution. The base can be any amine or ammonium base, such as ammonium hydroxide. […] Solvent is then added to the solution and the mifepristone (along with the internal standard) are extracted from the plasma. […] Following separation and concentration of the organic layer, the sample is reconstituted in a solvent mixture comprising water, acetonitrile and formic acid. The ratio of the solvent components can vary. In some embodiments, the solvent mixture is water:acetonitrile:formic acid (75:25:0.1, v/v/v). […] The sample can then be analyzed by reverse-phase high pressure liquid chromatography (HPLC). In some embodiments, the reverse-phase HPLC is performed using a water:acetonitrile:formic acid (60:40:0.1) mobile phase (isocratic) at a flow rate of 0.3 mL/min. […] The reverse-phase HPLC column can be a phenyl column maintained at 50° C. […] Following elution, the mobile phase can be nebulized using heated nitrogen in a Z-spray source/interface and the ionized compounds detected using a tandem quadrupole mass spectrometer. Mifepristone (molecular weight of 430 g/mol) can be detected at m/z 372.30. The internal standard mifepristone-d4 can be detected at m/z 376.30. The ratio of the mifepristone peak height to the peak height for the internal standard can then be calculated. The plasma concentration of mifepristone is then calculated by comparing the experimental ratio to a standard curve of mifepristone:mifepristone-d4 peak height ratio v. mifepristone concentration. […] In all studies, healthy adults were randomized to a sequence of administration of mifepristone drug product under fasting and fed conditions. […] The test group was comprised of 10 healthy adult subjects who were randomized to receive mifepristone at 600 mg/day for up to 14 days in Cohort 3 of Study CORT-108297-102. For this comparison the PK data after 7 days of dosing were used. […] The meal was given every day at approximately 30 min prior to receiving mifepristone, which was dosed as two 300 mg tablets once daily.

[3] = 600 mg single dose, Fed (50% fat) vs Fast, Study 12
[4] = 600 mg/day for 7 days following a breakfast of 34% fat, Day 7
[5] = 600 mg/day x 7 days, Fed (34% fat) vs Fast, C3
[6] = 1200 mg single dose, Fed (50% fat) vs Fast, Study 20
[7] = 1200 mg/day x 7 days, Fed (34% fat) vs Fast, Study 27
[8] = 1200 mg/day, high fat (50%) meal on day 8 after 7 days with typical fat meals
[9] = 600 mg, 600 mg single dose, Fast, healthy adults, Study 12
[10] = 600 mg, 600 mg single dose, Fed 50% fat, healthy adults, Study 12
[11] = 600 mg/day, 600 mg/day x 7 days, Fast, healthy adults, historical Studies C-1073-05 and C-1073-300 Part II (reference for C3)
[12] = 600 mg/day, 600 mg/day x 7 days, Fed 34% fat, healthy adults, Cohort 3 of CORT-108297-102
[13] = 1200 mg, 1200 mg single dose, Fast, healthy adults, Study 20
[14] = 1200 mg, 1200 mg single dose, Fed 50% fat, healthy adults, Study 20
[15] = 1200 mg/day, 1200 mg/day x 7 days, Fed 34% fat, healthy adults, Study 27

Question: Which “difference in plasma drug concentration from one patient to another” value [1] does the source give for CC#C[C@]1(O)CC[C@H]2[C@@H]3CCC4=CC(=O)CCC4=C3[C@@H](c3ccc(N(C)C)cc3)C[C@@]21C [Mifepristone, 17-beta-hydroxy-11-beta-(4-dimethyl-aminophenyl)-17-alpha-(1-propynyl)-estra-4,9-dien-3-one] here?
Answer: ≤ 800%

Question: What about the “AUCinf Ratio of Geometric Means” value [2, 3] of the same compound?
Answer: 1.29

Question: And the “Cmax Ratio of Geometric Means” value [2, 3]?
Answer: 1.19

Question: And the “increase in AUC0-24 as compared to the same dose in the fasted state” value [2, 4]?
Answer: 44%

Question: What about the “increase in Cmax as compared to the same dose in the fasted state” value [2, 4] of the same compound?
Answer: 34%

Question: And the “AUC0-24 Ratio of Geometric Means” value [2, 5]?
Answer: 1.44

Question: What about the “Cmax Ratio of Geometric Means” value [2, 5] of the same compound?
Answer: 1.34

Question: What about the “AUCinf Ratio of Geometric Means” value [2, 6] of the same compound?
Answer: 1.42

Question: What about the “Cmax Ratio of Geometric Means” value [2, 6] of the same compound?
Answer: 1.30

Question: And the “mean increase in mifepristone exposure relative to the fasted state” value ([2]; 1200 mg/day for 7 days with typical fat meals vs 7 days fasted)?
Answer: 65%

Question: What about the “Cmax Geo Mean” value ([2]; 1200 mg/day x 7 days, Fast, healthy adults, Study 27) of the same compound?
Answer: 3223 ng/mL

Question: And the “AUC0-24 Ratio of Geometric Means” value [2, 7]?
Answer: 1.65

Question: And the “Cmax Ratio of Geometric Means” value [2, 7]?
Answer: 1.56

Question: And the “effect on Cmax of switching to a high fat meal” value [2, 8]?
Answer: little or no effect

Question: And the “effect on exposure of switching to a high fat meal” value [2, 8]?
Answer: little or no effect

Question: And the AUC(0-inf) [2, 9]?
Answer: 104000 ng·h/mL

Question: What about the Cmax [2, 9] of the same compound?
Answer: 2310 ng/mL

Question: What about the AUC(0-inf) [2, 10] of the same compound?
Answer: 134000 ng·h/mL

Question: And the Cmax [2, 10]?
Answer: 2740 ng/mL

Question: And the AUC(0-t) [2, 11]?
Answer: 43600 ng·h/mL

Question: And the Cmax [2, 11]?
Answer: 3040 ng/mL

Question: What about the AUC(0-t) [2, 12] of the same compound?
Answer: 62600 ng·h/mL

Question: What about the Cmax [2, 12] of the same compound?
Answer: 4070 ng/mL

Question: And the AUC(0-inf) [2, 13]?
Answer: 134000 ng·h/mL

Question: And the Cmax [2, 13]?
Answer: 2830 ng/mL

Question: What about the AUC(0-inf) [2, 14] of the same compound?
Answer: 191000 ng·h/mL

Question: What about the Cmax [2, 14] of the same compound?
Answer: 3660 ng/mL

Question: What about the AUC(0-t) ([2]; 1200 mg/day, 1200 mg/day x 7 days, Fast, healthy adults, Study 27) of the same compound?
Answer: 44200 ng·h/mL

Question: And the AUC(0-t) [2, 15]?
Answer: 72800 ng·h/mL

Question: What about the Cmax [2, 15] of the same compound?
Answer: 5040 ng/mL

Question: What about the “dose proportionality of exposure and Cmax” value ([2]; multiple dosing, doses above 600 mg, fasted) of the same compound?
Answer: strong lack of dose proportionality
